Patent EP2266622A2, “Prodrugs containing novel bio-cleavable linkers” (Piramal Life Sciences Limited, priority 2004, dated 2006)
“Also recorded” adds a separate entry of the source. Marks after values point to notes of the source that are not given here.

Legend:
MES-induced seizures [1] = test: Test 1: Maximal Electroshock Test (MES), mice i.p.; assay type: in vivo; conditions: for MES: class symbol = dose
Method: (§1) Most of the prodrugs and mutual prodrugs of anticonvulsants described in this invention were evaluated at National Institute of Neurological Disorders and Stroke (NINDS), National Institute of Health (NIH), under their Antiepileptic Screening Program (ASP).
(§2) Test 1 is an initial screening for anticonvulsant activity in the Maximal Electroshock Test (MES) and Subcutaneous Metrazol Seizure Threshold Test (scMET) models combined with an initial assessment of toxicity (TOX) in mice via i.p. injection (see further explanation below). The data for each condition is presented as N/F, where N = number of animals protected from seizure and F = number of animals tested. For test of toxicity, N = number of animals displaying toxic effects and F = number of animals tested. Any deaths occurring during the test were recorded.
(§3) Maximal Electroshock Test (MES): The MES is a model for generalized tonic-clonic seizure and provides an indication of a compound's ability to prevent seizure spread when all neuronal circuits in the brain are maximally active. These seizures are highly reproducible and electro-physiologically consistent with human seizures. For all tests based on MES convulsions, 60 Hz of alternating current (50 mA in mice) is delivered for […] by corneal electrodes, which have been primed with an electrolyte solution containing an anesthetic agent (0.5% tetracaine hydrochloride). Mice were tested at various intervals following doses of 30, 100 and 300 mg/kg of test compound given by i.p. injection of a volume of 0.01 mL/g. Other doses can be used if indicated by previously known pharmacology. An animal is considered "protected" from MES-induced seizures upon abolition of the hind-limb tonic extensor component of the seizure.

[2] = system: minimal muscular or neurological impairment; test: Test 1: Acute toxicity, minimal motor impairment (rotorod), mice i.p.; assay type: in vivo; conditions: for Rotorod Toxicity (number of animals exhibiting toxicity/number of animals tested): 300 mg/kg (+); for Rotorod Toxicity: class symbol = dose
Method: as §1, §2

clonic seizures = test: Test 1: Subcutaneous Metrazol Seizure Threshold Test (scMET), mice i.p.; assay type: in vivo; conditions: for ScMET (number of animal protected/number of animal tested): 300 mg/kg (+); for ScMET: class symbol = dose
Method: as §1, §2
Subcutaneous Metrazol Seizure Threshold Test (scMET): Subcutaneous injection of the convulsant metrazol produces clonic seizures in laboratory animals. […] Animals were pretreated with various doses of the test compound given by i.p. injection. At the previously determined Time to Peak Effect (TPE) of the test compound, the dose of metrazol which will produce convulsions in 97% of animals (CD97: 85 mg/kg in mice) was injected into a loose fold of skin in the midline of the neck. The animals were placed in isolation cages to minimize stress and observed for the next 30 minutes for the presence or absence of a seizure. An episode of clonic spasms, approximately […], of the fore and/or hind limbs, jaws, or vibrissae is taken as the end point.

MES-induced seizures [3] = test: Test 2: MES, rats p.o.; assay type: in vivo
Description: as §3
(§4) Rats received test compounds orally.

Neurological toxicity = test: Test 2: neurological toxicity, rats p.o.; assay type: in vivo; conditions: 30 mg/kg
Description: as §4

[4] = 100 mg/kg (++), 2 hours after dosing
[5] = at 2 hours after dosing (footnote h)

Row | Structure (SMILES) | MES (MES-induced seizures [1]; 0.5 h) | MES (MES-induced seizures [1]; 4.0 h) | Rotorod Toxicity (number of animals exhibiting toxicity/number of animals tested) ([2]; 0.5 h) | Rotorod Toxicity ([2]; 0.5 h) | Rotorod Toxicity ([2]; 4.0 h) | ScMET (clonic seizures; 0.5 h) | ScMET (clonic seizures; 4.0 h) | MES (number of animal protected/number of animal tested) (MES-induced seizures [3]; 30 mg/kg, 0.50 h) | MES (number of animal protected/number of animal tested) (MES-induced seizures [3]; 30 mg/kg, 1.00 h) | MES (number of animal protected/number of animal tested) (MES-induced seizures [3]; 30 mg/kg, 2.00 h) | MES (number of animal protected/number of animal tested) (MES-induced seizures [3]; 30 mg/kg, 4.00 h) | activity in MES (Test 1, in words) (MES-induced seizures [1]) | MES (number of animal protected/number of animal tested) (MES-induced seizures [1]; 100 mg/kg (++), 4.0 h) | MES (number of animal protected/number of animal tested) (MES-induced seizures [1]; 300 mg/kg (+), 0.5 h) | MES (number of animal protected/number of animal tested) (MES-induced seizures [1]; 300 mg/kg (+), 4.0 h) | toxicity (Test 1, in words) [2] | also measured
1 | CC(=O)Oc1ccccc1C(=O)O [Aspirin] |  |  |  |  |  |  |  |  |  |  |  |  |  |  |  |  | haemorrhagic lesions (area), Mean ± S.E.M. (mucosal damage; rat, in vivo, po, 100 mg/kg): 2.7 ± 0.9 mm^2; ulcer development (in words) (mucosal damage; rat, in vivo, po, 100 mg/kg): severe haemorrhagic lesions; gastrointestinal safety (summary in words) (mucosal damage; rats, oral, high equivalent doses compared to aspirin): caused severe ulcers
2 | CCOC(=O)CC1(CNC(=O)OCCSSCCOC(=O)NC(=O)[C@H](CC)N2CCCC2=O)CCCCC1 [I-AA-MPD13] | - (- = no activity or no toxicity at 300 mg/kg) | - (- = no activity or no toxicity at 300 mg/kg) | 4/4 | + (+ = activity or toxicity at 300 mg/kg) | - (- = no activity or no toxicity at 300 mg/kg) | + (+ = activity or toxicity at 300 mg/kg) | - (- = no activity or no toxicity at 300 mg/kg) |  |  |  |  |  |  |  |  |  | ScMET (number of animal protected/number of animal tested) (clonic seizures; 0.5 h): 1/1
3 | CS(=O)(=O)NC(=O)OCCSSCCOC(=O)Nc1nnc(-c2cccc(Cl)c2Cl)c(N)n1 [I-A1-PD15] | + (+ = activity or toxicity at 300 mg/kg) |  |  | - (- = no activity or no toxicity at 300 mg/kg) | - (- = no activity or no toxicity at 300 mg/kg) | - (- = no activity or no toxicity at 300 mg/kg) | - (- = no activity or no toxicity at 300 mg/kg) | 0/4 | 1/4 | 3/4 | 4/4 | active in MES | 2/3 | (1/1) | 1/1 | no or mild toxicity | 
4 | CCOC(=O)CC1(CNC(=O)OCCSSCC(=O)OC)CCCCC1 [I-A1-PD5] | + (+ = activity or toxicity at 300 mg/kg) | - (- = no activity or no toxicity at 300 mg/kg) | 3/4 | + (+ = activity or toxicity at 300 mg/kg) | - (- = no activity or no toxicity at 300 mg/kg) | + (+ = activity or toxicity at 300 mg/kg) | - (- = no activity or no toxicity at 300 mg/kg) |  |  |  |  | active in MES |  |  |  | no or mild toxicity | 
5 | Nc1nc(NC(=O)OCCSSCCOC(=O)NCC2(CC(=O)O)CCCCC2)nnc1-c1cccc(Cl)c1Cl [I-AA-MPD11] |  |  | 1/4 |  | - (- = no activity or no toxicity at 300 mg/kg) | - (- = no activity or no toxicity at 300 mg/kg) | - (- = no activity or no toxicity at 300 mg/kg) | 0/4 | 2/4 | 1/4 | 4/4 | active in MES | 3/3 | 1/1 | 1/1 | no or mild toxicity | Toxicity (number of animals exhibiting toxicity/number of animals tested) (Neurological toxicity; 0.50 h): 0/4; Toxicity (number of animals exhibiting toxicity/number of animals tested) (Neurological toxicity; 1.00 h): 0/4; Toxicity (number of animals exhibiting toxicity/number of animals tested) (Neurological toxicity; 2.00 h): 0/4; Toxicity (number of animals exhibiting toxicity/number of animals tested) (Neurological toxicity; 4.00 h): 0/4
6 | Cl.Nc1nc(NC(=O)OCCSSCCNC(=O)c2cccnc2)nnc1-c1cccc(Cl)c1Cl [I-CA-MPD25] | + (+ = activity or toxicity at 300 mg/kg) |  |  | - (- = no activity or no toxicity at 300 mg/kg) | - (- = no activity or no toxicity at 300 mg/kg) | - (- = no activity or no toxicity at 300 mg/kg) | - (- = no activity or no toxicity at 300 mg/kg) | 0/4 | 3/4 | 4/4 | 2/4 | active in MES | 2/3 | (1/1) | 1/1 | no or mild toxicity | 
7 | CCOC(=O)CC1(CNC(=O)OCCSSCCO[N+](=O)[O-])CCCCC1 [I-A1-NOPD1] | + (+ = activity or toxicity at 300 mg/kg) | - (- = no activity or no toxicity at 300 mg/kg) | 4/4 |  | - (- = no activity or no toxicity at 300 mg/kg) |  | - (- = no activity or no toxicity at 300 mg/kg) |  |  |  |  |  |  | 1/1 |  |  | MES (number of animal protected/number of animal tested) (MES-induced seizures [1]; 100 mg/kg (++), 0.25 hours after dosing): (1/3)^k; MES (MES-induced seizures [1]; at 0.25 hours after dosing (footnote k)): ++ (++ = activity or toxicity at 100 mg/kg); ScMET (number of animal protected/number of animal tested) (clonic seizures; 0.5 h): 1/1
8 | Nc1nc(NC(=O)OCCSSCCOC(=O)c2cccnc2)nnc1-c1cccc(Cl)c1Cl [I-CA-MPD24] | - (- = no activity or no toxicity at 300 mg/kg) | ++ (++ = activity or toxicity at 100 mg/kg) |  | - (- = no activity or no toxicity at 300 mg/kg) | - (- = no activity or no toxicity at 300 mg/kg) | - (- = no activity or no toxicity at 300 mg/kg) |  | 0/4 | 2/4 | 3/4 | 4/4 | active in both MES and scMET models | 3/3 |  |  | non-toxic; also recorded: no or mild toxicity | MES (number of animal protected/number of animal tested) (MES-induced seizures [1]; [4]): 3/3; MES (number of animal protected/number of animal tested) (MES-induced seizures [1]; 100 mg/kg (++), 6 hours after dosing): (3/3)^m; MES (MES-induced seizures [1]; [5]): ++ (++ = activity or toxicity at 100 mg/kg); MES (MES-induced seizures [1]; at 6 hours after dosing (footnotes g, m)): ++ (++ = activity or toxicity at 100 mg/kg); activity in scMET (Test 1, in words) (clonic seizures): active in both MES and scMET models; ScMET (number of animal protected/number of animal tested) (clonic seizures; 4.0 h): (1/1)^l
9 | CCCC(CCC)C(=O)OCCSSCCOC(=O)Nc1nnc(-c2cccc(Cl)c2Cl)c(N)n1 [I-CA-MPD23] | - (- = no activity or no toxicity at 300 mg/kg) | + (+ = activity or toxicity at 300 mg/kg) |  | - (- = no activity or no toxicity at 300 mg/kg) | - (- = no activity or no toxicity at 300 mg/kg) | - (- = no activity or no toxicity at 300 mg/kg) | - (- = no activity or no toxicity at 300 mg/kg) |  |  |  |  | active in MES |  |  | 1/3 | no or mild toxicity | MES (number of animal protected/number of animal tested) (MES-induced seizures [3]; 150 mg/kg, 2.00 h): 4/4; MES (number of animal protected/number of animal tested) (MES-induced seizures [3]; 150 mg/kg, 4.00 h): 4/4; MES (number of animal protected/number of animal tested) (MES-induced seizures [3]; 150 mg/kg, 6.00 h): 4/4; MES (number of animal protected/number of animal tested) (MES-induced seizures [3]; 150 mg/kg, 8.00 h): 4/4; MES (number of animal protected/number of animal tested) (MES-induced seizures [1]; [4]): 1/3; MES (MES-induced seizures [1]; [5]): ++ (++ = activity or toxicity at 100 mg/kg)
